Measurements reported in patent US20100239556A1, “PROMOTING ECM PRODUCTION BY FIBROBLAST CELLS AND/OR PROMOTING MIGRATION OF FIBROBLAST CELLS IN A BIOLOGICAL SYSTEM” (TGR BioScience Pty Ltd., priority 2006, published 2010).

B1: horse radish peroxidase (protein, UniProt P00433 31-338, looked up)
Peroxidase C1A: QLTPTFYDNSCPNVSNIVRDTIVNELRSDPRIAASILRLHFHDCFVNGCDASILLDNTTSFRTEKDAFGNANSARGFPVIDRMKAAVESACPRTVSCADLLTIAAQQSVTLAGGPSWRVPLGRRDSLQAFLDLANANLPAPFFTLPQLKDSFRNVGLNRSSDLVALSGGHTFGKNQCRFIMDRLYNFSNTGLPDPTLNTTYLQTLRGLCPLNGNLSALVDFDLRTPTIFDNKYYVNLEEQKGLIQSDQELFSSPNATDTIPLVRSFANSTQTFFNAFVEAMDRMGNITPLTGTQGQIRLNCRVVNSNS

Columns and labels:
dermis = assay: Cellular integration and ECM production of dermal filler substances implanted intradermally; format: in vivo, Sprague-Dawley rats; conditions: one month after implantation; for cellular integration and ECM production within Hylaform: LP 1 mg/ml or HRP 500 μg/ml added to Hylaform, or Hylaform alone; for cellular integration and ECM production within Restylane: LP 1 mg/ml or HRP 500 μg/ml added to Restylane, or Restylane alone
Procedure: The ability of agents with peroxidase activity to stimulate the production of endogenous ECM within, or about, a substrate when implanted in vivo was assessed. Substrates used for these experiments were two hyaluronic acid based dermal filler substances; Hylaform® Plus containing 5.5 mg/ml hylan B gel and Restylane® containing 20 mg/ml stabilised hyaluronic acid, and Sculptra® containing poly-L-lactic acid. The two pre-prepared “ready to use” hyaluronic acid filler substances were diluted 1:2 with 1 mg/ml HRP to give a final concentration of 500 μg/ml HRP whilst Sculptra powder was dissolved in a lmg/ml LP solution to final concentrations of 25 and 50 mg/ml poly-L-lactic acid. As described in example 8, female Sprague-Dawley rats were lightly anaesthetized and a volume of approximately 50 μl of the filler substance+protein with peroxidase activity or filler substance alone were injected intradermally into different sites on their dorsum. The rats were returned to their cage and left alone for 7 days or 1 month after which they were killed by CO2 asphyxiation and the skin at the injection sites collected for histological assessment as described in example 8, or immunohistochemical staining for collagen I using the method outlined previously for the SMA immunohistochemistry (in Example 3) with the variation that 5 μg/ml rabbit anti Collagen-I (Rocklands Immunochemicals) was used as the primary antibody.

[1] = test system: adult primary fibroblast cells and HFF cells; assay: Organisation of collagen fibers on coverslips (collagen I immunohistochemistry); format: cell-based, human; conditions: treated up to 7 days
Procedure: ECM, rather than disorganized ECM which would increase the risk of scar formation within the dermis and contribute to the generation of structurally and functionally impaired replacement tissue, additional experiments were performed to visualize the collagen fibers formed by fibroblast cells stimulated with proteins having peroxidase activity. These experiments involved growing adult primary fibroblast cells and HFF cells on microscope slide coverslips placed into each well of six well tissue culture plates. Each well containing a coverslip was seeded with 1.5×10^5 cells and after one week of culture, the cells were treated with a range of proteins having peroxidase activity for up to 7 days. At the end of the experiment, the cell media was removed and the cells and cell-associated ECM fixed by the addition of 10% formalin. The coverslips were removed from the tissue culture plate and stained immunohistochemically for collagen I using the method outlined in Example 3 for the SMA immunohistochemistry with the variation that 5 μg/ml rabbit anti Collagen-I (Rocklands Immunochemicals) was used as the primary antibody.

adult fibroblast cells = assay: ECM production within INTEGRA scaffold (collagen I immunohistochemistry); format: cell-based, human
Excerpt: INTEGRA® was cut into lcm x lcm pieces using a sterile scalpel, the pieces transferred to a petri dish using sterile forceps and washed four times each with PBS followed by serum-free DMEM, to remove the alcohol storage medium and to equilibrate the porous scaffold for exposure to cells. After the last wash, the INTEGRA® pieces were transferred to the wells of a 12 well tissue culture plate (collagen layer facing up) immersed in media containing proteins having peroxidase activity. This “pre-treatment” of the INTEGRA® with proteins having peroxidase activity was performed for up to 16 hours at 37° C. in a CO2 incubator. After the “pre-incubation” period, the media was replaced with fresh DMEM supplemented with 10% FBS (ie normal growth media as the control) containing 5×10^5 human fibroblast cells plus or minus proteins having peroxidase activity. After allowing 24 hours for the fibroblast cells to attach to the collagen matrix of the INTEGRA® scaffold, the INTEGRA® pieces were transferred to fresh 12 well plates to ensure any cells not attached to the matrix surface were removed. Fresh media containing proteins with peroxidase activity were added to the wells and the INTEGRA® pieces incubated for up to 14 days (“post-treatment” period) with the media changed every 7 days as necessary. At the end of the experiment the INTEGRA® pieces were harvested and fixed in 10% buffered formaldehyde before they were processed, embedded in paraffin wax, cut in cross-section and placed onto microscope slides for histological and immunohistochemical analysis.
To confirm proteins having peroxidase activity promote the generation of a three-dimensional human tissue by stimulating the production of collagen and other ECM components to fill the interstices of a three-dimensional framework or scaffold, INTEGRA® pieces collected from the experiments described in Example 3 were analysed for the production of Collagen I (as a representative ECM protein) using immunohistochemistry. […]

[2] = test system: primary-adult fibroblast cells; assay: Fibroblast infiltration into INTEGRA scaffold (SMA immunohistochemistry); format: cell-based, human
Excerpt: INTEGRA® was cut into lcm x lcm pieces using a sterile scalpel, the pieces transferred to a petri dish using sterile forceps and washed four times each with PBS followed by serum-free DMEM, to remove the alcohol storage medium and to equilibrate the porous scaffold for exposure to cells. After the last wash, the INTEGRA® pieces were transferred to the wells of a 12 well tissue culture plate (collagen layer facing up) immersed in media containing proteins having peroxidase activity. This “pre-treatment” of the INTEGRA® with proteins having peroxidase activity was performed for up to 16 hours at 37° C. in a CO2 incubator. After the “pre-incubation” period, the media was replaced with fresh DMEM supplemented with 10% FBS (ie normal growth media as the control) containing 5×10^5 human fibroblast cells plus or minus proteins having peroxidase activity. After allowing 24 hours for the fibroblast cells to attach to the collagen matrix of the INTEGRA® scaffold, the INTEGRA® pieces were transferred to fresh 12 well plates to ensure any cells not attached to the matrix surface were removed. Fresh media containing proteins with peroxidase activity were added to the wells and the INTEGRA® pieces incubated for up to 14 days (“post-treatment” period) with the media changed every 7 days as necessary. […]

HFF cells = assay: Soluble collagen I secreted by fibroblast-populated INTEGRA (ELISA); format: cell-based, human; conditions: SBP 12.5 μg/ml for 24 hours, ELISA after 72 hours
Procedure: Additional experiments were performed to determine if fibroblast cells populating a three-dimensional framework or scaffold could be stimulated to secrete soluble collagen I into the media bathing the three-dimensional framework or scaffold. For these experiments, HFF cells were seeded onto the INTEGRA® and allowed to populate the scaffold for two weeks under normal culture conditions (10% FCS supplementation). The populated scaffold was then stimulated with a protein having peroxidase activity by immersing it in basal media (DMEM) containing SBP (12.5 μg/ml) for 24 hours. The INTEGRA® was then placed into fresh DMEM and the collagen-I content of the media measured by ELISA after 72 hours.

[3] = 25 μg/ml before and after addition of cells, 7 days, versus 7 and 14 day controls

Molecule | cellular integration and ECM production within Hylaform (dermis) | cellular integration and ECM production within Restylane (dermis) | collagen fibers in the cell-associated ECM [1] | also measured
lactoperoxidase [LP] | surprising increase in cellular infiltration and integration and cell-associated ECM production | surprising increase in cellular infiltration and integration and cell-associated ECM production | – | –
microperoxidase [MP] | – | – | collagen was not the major ECM protein deposited | –
soy bean peroxidase [SBP] | – | – | – | cell-associated ECM within the interstices of the scaffold (adult fibroblast cells; [3]): much more cell-associated ECM was evident; cells within the interstices of the INTEGRA scaffold [2, 3]: many more cells were evident within the interstices of the scaffold; increase in collagen I secreted into the media bathing the scaffold (HFF cells): 2-3 fold
B1 | Increased cellular integration and ECM production | Increased cellular integration and ECM production | strongly stained, parallel collagen fibers | ECM production and integration (adult fibroblast cells; 25 μg/ml, 14 days, versus 14 days standard conditions): much greater ECM production and integration; cells within the INTEGRA scaffold ([2]; 25 μg/ml, 14 days of treatment): even greater number of cells evident within the scaffold
